The source of these data is patent US20130053381A1, “2,4-DIOXO-1,4-DIHYDRO-2H-QUINAZOLIN-3-YL-SULFONAMIDE DERIVATIVES” (NOVARTIS AG, priority 2010, published 2013).

SMILES strings stand for the structures. Read-outs that look alike come from different tables or passages of the source.

The subject of this experiment is OF1 mice. Kind of experiment: Maximal electroshock test (MES Test). The experiment is classed as in vivo. The conditions noted are these: Mus musculus, read-out: %-Protection. How it is done:
Compounds of the invention were tested in OF1 mice using the maximal electroshock test (MES Test) described in detail by Schmutz et al., Naunyn-Schmiedeberg's Arch Pharmacol 1990, 342, 61-66. Briefly, generalized tonic-clonic convulsions of the hind extremities were induced by passing electrical current through temporal electrodes (50 Hz, 18 mA, 0.2s). […] 30 mg/kg carbamazepine was used as a positive control; mice were classified as protected by a compound If the duration of the seizure lasted only 3 second or less. Five mice were used for each treatment condition and the percentage of protected mice was used as readout (i.e. a compound could give 0%, 20%, 40%, 60%, 80% or 100% protection). Usually, compounds of the invention or their parents were given at a dose of 50 mg/kg, p.o., 1 hour prior to induction of convulsions (i.e. “pre-treatment time −1 h”).
ED50 values (ED: effective dose) were calculated using GraphPad Prism, v4.02. after shock administration, mouse blood was collected for determination of compounds' blood exposure.

Setting [1] is: po, p.o. (footnote c), pre-treatment time −1 h.
The mark [2] stands for this setting: po, 50 mg/kg, p.o., pre-treatment time −1 h.

Take `COCCOC(=O)N(n1c(=O)[nH]c2cc(C(C)C)c(-c3ccnn3C)cc2c1=O)S(C)(=O)=O` [Example 3.02, [7-Isopropyl-6-(2-methyl-2H-pyrazol-3-yl)-2,4-dioxo-1,4-dihydro-2H-quinazolin-3-yl]-methanesulfonyl-carbamic acid 2-methoxy-ethyl ester]: the responders at 15 mg/kg under setting [1] was found to be 100%.
The same measure, in the same setting: for `CC(C)COC(=O)N(n1c(=O)[nH]c2cc(C(C)C)c(-c3ccnn3C)cc2c1=O)S(C)(=O)=O` [Example 3.03, [7-Isopropyl-6-(2-methyl-2H-pyrazol-3-yl)-2,4-dioxo-1,4-dihydro-2H-quinazolin-3-yl]-methanesulfonyl-carbamic acid isobutyl ester] the value was 40%.
Regarding `CC(C)COC(=O)N(n1c(=O)c2cc(-c3ccnn3C)c(C(C)C)cc2n(C(=O)OCC(C)C)c1=O)S(C)(=O)=O` [Example 3.04, 3-(Isobutoxycarbonyl-methanesulfonyl-amino)-7-isopropyl-6-(2-methyl-2H-pyrazol-3-yl)-2,4-dioxo-3,4-dihydro-2H-quinazoline-1-carboxylic acid isobutyl ester], the responders at 15 mg/kg under setting [1] worked out at 20%.
On the same count and under the same terms, for `COC(=O)N(n1c(=O)[nH]c2cc(C(C)C)c(-c3ccnn3C)cc2c1=O)S(C)(=O)=O` [Example 3.05, [7-Isopropyl-6-(2-methyl-2H-pyrazol-3-yl)-2,4-dioxo-1,4-dihydro-2H-quinazolin-3-yl]-methanesulfonyl-carbamic acid methyl ester] the value was 60%.
On to `CCOC(=O)CCC(=O)N(n1c(=O)[nH]c2cc(C(C)C)c(-c3ccnn3C)cc2c1=O)S(C)(=O)=O` [Example 3.06, 4-{[7-Isopropyl-6-(2-methyl-2H-pyrazol-3-yl)-2,4-dioxo-1,4-dihydro-2H-quinazolin-3-yl]-methanesulfonyl-amino}-4-oxo-butyric acid ethyl ester], for which the responders at 15 mg/kg under setting [1] was 100%.
Same read-out and setting: for `CCOC(=O)CC(=O)N(n1c(=O)[nH]c2cc(C(C)C)c(-c3ccnn3C)cc2c1=O)S(C)(=O)=O` [Example 3.07, 3-{[7-Isopropyl-6-(2-methyl-2H-pyrazol-3-yl)-2,4-dioxo-1,4-dihydro-2H-quinazolin-3-yl]-methanesulfonyl-amino}-3-oxo-propionic acid ethyl ester] the value was 80%; for `CCOC(=O)CCCC(=O)N(n1c(=O)[nH]c2cc(C(C)C)c(-c3ccnn3C)cc2c1=O)S(C)(=O)=O` [Example 3.08, 5-{[7-Isopropyl-6-(2-methyl-2H-pyrazol-3-yl)-2,4-dioxo-1,4-dihydro-2H-quinazolin-3-yl]-methanesulfonyl-amino}-5-oxo-pentanoic acid ethyl ester], 100%.
As to `CCCCC(=O)N(n1c(=O)[nH]c2cc(C(C)C)c(-c3ccnn3C)cc2c1=O)S(C)(=O)=O` [Example 3.09, N-[7-Isopropyl-6-(2-methyl-2H-pyrazol-3-yl)-2,4-dioxo-1,4-dihydro-2H-quinazolin-3-yl]-N-pentanoyl-methanesulfonamide], the responders at 15 mg/kg under setting [1] came to 100%.
The same measure, in the same setting: next, `CC(=O)OC(C)(C)C(=O)N(n1c(=O)[nH]c2cc(C(C)C)c(-c3ccnn3C)cc2c1=O)S(C)(=O)=O` [Example 3.10, Acetic acid 2-{[7-isopropyl-6-(2-methyl-2H-pyrazol-3-yl)-2,4-dioxo-1,4-dihydro-2H-quinazolin-3-yl]-methanesulfonyl-amino}-1,1-dimethyl-2-oxo-ethyl ester]: 40%.
As for `CC(=O)OC(C)(C)C(=O)N(n1c(=O)c2cc(-c3ccnn3C)c(C(C)C)cc2n(C(=O)C(C)(C)OC(C)=O)c1=O)S(C)(=O)=O` [Example 3.11, Acetic acid 2-[3-[(2-acetoxy-2-methyl-propionyl)-methanesulfonyl-amino]-7-isopropyl-6-(2-methyl-2H-pyrazol-3-yl)-2,4-dioxo-3,4-dihydro-2H-quinazolin-1-yl]-1,1-dimethyl-2-oxo-ethyl ester], for the setting “po, p.o., pre-treatment time −2 h (footnotes a,c)”, the responders at 15 mg/kg is 40%.
Take `CCC(=O)N(n1c(=O)[nH]c2cc(C(C)C)c(-c3ccnn3C)cc2c1=O)S(C)(=O)=O` [Example 3.12, N-[7-Isopropyl-6-(2-methyl-2H-pyrazol-3-yl)-2,4-dioxo-1,4-dihydro-2H-quinazolin-3-yl]-N-propionyl-methanesulfonamide]: under setting [2], the responders at 50 mg/kg came out at 100%.
Same read-out and setting: for `CCCC(=O)N(n1c(=O)[nH]c2cc(C(C)C)c(-c3ccnn3C)cc2c1=O)S(C)(=O)=O` [Example 3.13, N-Butyryl-N-[7-isopropyl-6-(2-methyl-2H-pyrazol-3-yl)-2,4-dioxo-1,4-dihydro-2H-quinazolin-3-yl]-methanesulfonamide] the value was 100%.
The same measure, in the same setting: for `CCCCCC(=O)N(n1c(=O)[nH]c2cc(C(C)C)c(-c3ccnn3C)cc2c1=O)S(C)(=O)=O` [Example 3.14, N-Hexanoyl-N-[7-isopropyl-6-(2-methyl-2H-pyrazol-3-yl)-2,4-dioxo-1,4-dihydro-2H-quinazolin-3-yl]-methanesulfonamide] the value was 100%.
For `CCCCCCCCCC(=O)N(n1c(=O)[nH]c2cc(C(C)C)c(-c3ccnn3C)cc2c1=O)S(C)(=O)=O` [Example 3.15, N-Decanoyl-N-[7-isopropyl-6-(2-methyl-2H-pyrazol-3-yl)-2,4-dioxo-1,4-dihydro-2H-quinazolin-3-yl]-methanesulfonamide], the responders at 25 mg/kg (sc, Dose: 25 mg/kg, s.c., pre-treatment time −4 h (footnote f)) is 20%. Besides, the responders at 50 mg/kg (dose of up to 50 mg/kg, p.o., 1 hour prior to induction of convulsions) came to 0%.
For `CC(C)C(=O)N(n1c(=O)[nH]c2cc(C(C)C)c(-c3ccnn3C)cc2c1=O)S(C)(=O)=O` [Example 3.16, N-Isobutyryl-N-[7-isopropyl-6-(2-methyl-2H-pyrazol-3-yl)-2,4-dioxo-1,4-dihydro-2H-quinazolin-3-yl]-methanesulfonamide], the responders at 50 mg/kg under setting [2] was 60%.
Same read-out and setting: next, `CC(=O)OCC(=O)N(n1c(=O)[nH]c2cc(C(C)C)c(-c3ccnn3C)cc2c1=O)S(C)(=O)=O` [Example 3.17, Acetic acid 2-{[7-isopropyl-6-(2-methyl-2H-pyrazol-3-yl)-2,4-dioxo-1,4-dihydro-2H-quinazolin-3-yl]-methanesulfonyl-amino}-2-oxo-ethyl ester]: 100%.
Same read-out and setting: next, `CSCCC(=O)N(n1c(=O)[nH]c2cc(C(C)C)c(-c3ccnn3C)cc2c1=O)S(C)(=O)=O` [Example 3.18, N-[7-Isopropyl-6-(2-methyl-2H-pyrazol-3-yl)-2,4-dioxo-1,4-dihydro-2H-quinazolin-3-yl]-N-(3-methylsulfanyl-propionyl)-methanesulfonamide]: 100%; `CCOC(=O)N(n1c(=O)[nH]c2cc(C(C)C)c(-c3ccnn3C)cc2c1=O)S(C)(=O)=O` [Example 3.19, [7-Isopropyl-6-(2-methyl-2H-pyrazol-3-yl)-2,4-dioxo-1,4-dihydro-2H-quinazolin-3-yl]-methanesulfonyl-carbamic acid ethyl ester]: 100%; `CCCOC(=O)N(n1c(=O)[nH]c2cc(C(C)C)c(-c3ccnn3C)cc2c1=O)S(C)(=O)=O` [Example 3.20, [7-Isopropyl-6-(2-methyl-2H-pyrazol-3-yl)-2,4-dioxo-1,4-dihydro-2H-quinazolin-3-yl]-methanesulfonyl-carbamic acid propyl ester]: 100%.
